Data: patent US20130109726A1, “SUSTAINED-RELEASE THERAPEUTIC AGENT FOR HYPERTENSION AND RENAL DYSFUNCTION” (TEIJIN PHARMA LIMITED, priority 2010, published 2013)

What was measured:
[1] = system: spontaneously hypertensive rats (SHR); experiment: Systolic blood pressure by Tail-Cuff method in spontaneous hypertension model (SHR); type: in vivo, rat
Procedure: The effects of the immediate-release and sustained-release administrations of febuxostat in a spontaneous hypertension model were ascertained. Male spontaneously hypertensive rats (SHR) aged 12 weeks were subjected to quarantine for a week or more before used as subjects. From 13 weeks of age, habituation to blood pressure measurement with a Tail-Cuff sphygmomanometer (BP-2000, Visitech systems, Napa Place, N.C., USA) was performed for two weeks. At 15 weeks of age after the completion of the habituation, blood pressure was measured, and the subjects were divided into three groups (10 subjects in each group), such that the systolic blood pressures were evenly distributed. Subsequently, the administrations were started. Group 1, a control group, was given tap water. Group 2 was given febuxostat in drinking water. Group 3 was given febuxostat by oral gavage.
The administration in drinking water was performed by giving the subjects access to an aqueous solution of febuxostat ad libitum. In this manner, prolonged drug exposure to the blood, i.e, sustained-release administration can be accomplished, as compared to a single oral administration. On the other hand, the oral administration was performed by giving a suspension of febuxostat in 0.5% MC solution (with a concentration of febuxostat of 2 mg/mL) at 5 mL/kg by oral gavage. The blood level of the drug rapidly increases after the administration and diclines soon. Thus, immediate-release administration can be accomplished in this manner. After 18 days of administration, systolic blood pressure was measured by the Tail-Cuff method.

[2] = system: adriamycin-induced nephropathy mouse model; experiment: Urine albumin excretion in adriamycin-induced nephropathy mouse model; type: in vivo
Procedure: The effects of the immediate-release and sustained-release administrations of febuxostat in an adriamycin-induced nephropathy mouse model were ascertained. The adriamycin-induced nephropathy model is known as a renal dysfunction model in which lesions occur in glomerular epithelial cells and proteinuria is observed.
Male BALB/cAnNCrlCrlj mice aged 7 weeks were subjected to quarantine for a week or more before used as subjects.
At 8 weeks of age, a 24-hour urine collection was performed and the concentration of albumin in the collected urine was measured by ELISA. The subjects were divided into three groups, such that the amounts of albumin excretion were evenly distributed. Subsequently, the administrations were started. Group 1, a control group, was given tap water. Group 2 was given febuxostat in drinking water. Group 3 was given febuxostat by oral gavage.
The administration in drinking water was performed by giving the subjects access to an aqueous solution of febuxostat ad libitum. In this manner, prolonged drug exposure, i.e, sustained-release administration can be accomplished, as compared to a single oral administration. On the other hand, the oral administration was performed by giving a suspension of febuxostat in 0.5% MC solution by oral gavage via a tube. The blood level of the drug rapidly increases after the administration and diclines soon. Thus, immediate-release administration can be accomplished in this manner. Following the initiation of dosing on the first day, adriamycin was given to mice via tail vein at 10 mg/kg. Then, the administrations were conducted for 5 consecutive days. A 24-hour urine collection was performed 5 days after onset of drug administration and the amount of albumin in the collected urine was measured as previously described.

Cc1nc(-c2ccc(OCC(C)C)c(C#N)c2)sc1C(=O)O [febuxostat, 2-(3-cyano-4-isobutyloxyphenyl)-4-methyl-5-thiazole carboxylic acid]
systolic blood pressure (mean±standard error) ([1]; Group 2, sustained-release administration, 1.5 mg/kg/day in drinking water, Day 18 of dosing): 199 ± 3 mmHg | systolic blood pressure (mean±standard error) ([1]; Group 2, sustained-release administration, 1.5 mg/kg/day in drinking water, Pre-dose): 203 ± 3 mmHg | systolic blood pressure (mean±standard error) ([1]; Group 3, immediate-release administration, 10 mg/kg/day oral gavage, Day 18 of dosing): 217 ± 3 mmHg | systolic blood pressure (mean±standard error) ([1]; Group 3, immediate-release administration, 10 mg/kg/day oral gavage, Pre-dose): 201 ± 4 mmHg | blood pressure lowering, sustained-release versus immediate-release administration ([1]; SHR, 18 days of administration): blood pressure was more strongly lowered by administering febuxostat in a sustained-release manner | Urine albumin excretion (mean±standard error) ([2]; Group 2, sustained-release administration, 3 mg/kg/day in drinking water, Day 0): 0.1 ± 0.1 mg/day | Urine albumin excretion (mean±standard error) ([2]; Group 2, sustained-release administration, 3 mg/kg/day in drinking water, Day 5, adriamycin 10 mg/kg i.v.): 9.5 ± 3.9 mg/day | Urine albumin excretion (mean±standard error) ([2]; Group 3, immediate-release administration, 3 mg/kg/day oral gavage, Day 0): 0.1 ± 0.1 mg/day | Urine albumin excretion (mean±standard error) ([2]; Group 3, immediate-release administration, 3 mg/kg/day oral gavage, Day 5, adriamycin 10 mg/kg i.v.): 18.4 ± 9.7 mg/day | amelioration of renal dysfunction, sustained-release versus immediate-release administration ([2]; adriamycin-induced nephropathy mice, 5 days of administration): renal dysfunction was more effectively ameliorated by administering febuxostat in a sustained-manner
